Reference: PubChem BioAssay AID1963446 (Molecular Pharmacology Branch, DTP, NCI, 2024)

Tested on: 993429-296-R-J1-PDC complex spheroid growth, percent test/control
Assay: Anticancer human tumor 993429-296-R-J1-PDC patient-derived uterine sarcoma cell line growth inhibition [Asc]
Conditions: for IC50: curve of first compound; for viability, T/C: stronger effect = lower value; active means viability on the fitted dose curve at most 10% of control; inactive means the rest
How it was run: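 Tumor cells were grown as complex spheroids with human endothelial cells (HUVEC) and human mesenchymal stem cells as stroma. Agents were tested alone and in combination, in half-log steps down from the clinical Cmax, or from 10 microM where Cmax was unknown.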
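Further: spheroids exposed to compounds for seven days.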

NC(=O)C(=Cn1cnc(-c2cc(C(F)(F)F)cc(C(F)(F)F)c2)n1)c1cncnc1 + CCN1C(C(=O)NC23CCC(C(=O)O)(CC2)CC3)C(c2cccc(Cl)c2F)C2(C(=O)Nc3cc(Cl)ccc32)C12CCCCC2
20.3 nM: IC50 (second compound 0.949 µM)
14 nM: IC50 (second compound 0.3 µM)
15.5 nM: IC50 (second compound 0.0949 µM)
inactive: viability, T/C (second compound 0.03 µM, first compound 0.000949 µM) 98% | viability, T/C (second compound 0.03 µM, first compound 0.003 µM) 97.9% | viability, T/C (second compound 0.03 µM, first compound 0.00949 µM) 71% | viability, T/C (second compound 0.03 µM, first compound 0.03 µM) 34% | viability, T/C (second compound 0.03 µM, first compound 0.0949 µM) 17.8% | viability, T/C (second compound 0.03 µM, first compound 0.3 µM) 9.36% | viability, T/C (second compound 0.0949 µM, first compound 0.000949 µM) 95.3% | viability, T/C (second compound 0.0949 µM, first compound 0.003 µM) 87% | viability, T/C (second compound 0.0949 µM, first compound 0.00949 µM) 63.4% | viability, T/C (second compound 0.0949 µM, first compound 0.03 µM) 31.9% | viability, T/C (second compound 0.0949 µM, first compound 0.0949 µM) 14.9% | viability, T/C (second compound 0.3 µM, first compound 0.000949 µM) 89.3% | viability, T/C (second compound 0.3 µM, first compound 0.003 µM) 85.6% | viability, T/C (second compound 0.3 µM, first compound 0.00949 µM) 55.4% | viability, T/C (second compound 0.3 µM, first compound 0.03 µM) 33.4% | viability, T/C (second compound 0.3 µM, first compound 0.0949 µM) 19.7% | viability, T/C (second compound 0.3 µM, first compound 0.3 µM) 9.08% | viability, T/C (second compound 0.949 µM, first compound 0.000949 µM) 83% | viability, T/C (second compound 0.949 µM, first compound 0.003 µM) 90% | viability, T/C (second compound 0.949 µM, first compound 0.00949 µM) 83.3% | viability, T/C (second compound 0.949 µM, first compound 0.03 µM) 33% | viability, T/C (second compound 0.949 µM, first compound 0.0949 µM) 14% | viability, T/C (second compound 0.949 µM, first compound 0.3 µM) 7.67% | viability, T/C (second compound 3 µM, first compound 0.000949 µM) 81.7% | viability, T/C (second compound 3 µM, first compound 0.003 µM) 87.5% | viability, T/C (second compound 3 µM, first compound 0.00949 µM) 55.4% | viability, T/C (second compound 3 µM, first compound 0.03 µM) 29.8% | viability, T/C (second compound 3 µM, first compound 0.0949 µM) 13%
13.3 nM: IC50 (second compound 3 µM)
18.6 nM: IC50 (second compound 0.03 µM)
active: viability, T/C (second compound 0.0949 µM, first compound 0.3 µM) 8.83% | viability, T/C (second compound 3 µM, first compound 0.3 µM) 8.21%

O=C(c1cc(Cc2n[nH]c(=O)c3ccccc23)ccc1F)N1CCN(C(=O)C2CC2)CC1 + Cc1c(S(C)(=O)=O)c(-c2cc(F)cc(N3CCN(c4ccc(NS(=O)(=O)c5ccc(NC(CCN6CCC(C(=O)OCCCP(=O)(O)O)CC6)CSc6ccccc6)c(S(=O)(=O)C(F)(F)F)c5)cc4)CC3)c2)c(-c2ccc(Cl)cc2)n1C(C)C
active: viability, T/C (second compound 0.316 µM, first compound 10 µM) 8.15% | viability, T/C (second compound 1 µM, first compound 10 µM) 5.17% | viability, T/C (second compound 3.16 µM, first compound 10 µM) 4.24% | viability, T/C (second compound 10 µM, first compound 10 µM) 1.63%
773 nM: IC50 (second compound 1 µM)
1480 nM: IC50 (second compound 10 µM)
944 nM: IC50 (second compound 0.1 µM)
inactive: viability, T/C (second compound 0.1 µM, first compound 0.0316 µM) 89.2% | viability, T/C (second compound 0.1 µM, first compound 0.1 µM) 53.2% | viability, T/C (second compound 0.1 µM, first compound 0.316 µM) 56.9% | viability, T/C (second compound 0.1 µM, first compound 1 µM) 59.6% | viability, T/C (second compound 0.1 µM, first compound 3.16 µM) 37.8% | viability, T/C (second compound 0.1 µM, first compound 10 µM) 9.27% | viability, T/C (second compound 0.316 µM, first compound 0.0316 µM) 55.8% | viability, T/C (second compound 0.316 µM, first compound 0.1 µM) 51.1% | viability, T/C (second compound 0.316 µM, first compound 0.316 µM) 69.8% | viability, T/C (second compound 0.316 µM, first compound 1 µM) 49.3% | viability, T/C (second compound 0.316 µM, first compound 3.16 µM) 29.1% | viability, T/C (second compound 1 µM, first compound 0.0316 µM) 51.5% | viability, T/C (second compound 1 µM, first compound 0.1 µM) 55.8% | viability, T/C (second compound 1 µM, first compound 0.316 µM) 57.2% | viability, T/C (second compound 1 µM, first compound 1 µM) 48.2% | viability, T/C (second compound 1 µM, first compound 3.16 µM) 20.5% | viability, T/C (second compound 3.16 µM, first compound 0.0316 µM) 42% | viability, T/C (second compound 3.16 µM, first compound 0.1 µM) 39% | viability, T/C (second compound 3.16 µM, first compound 0.316 µM) 44.3% | viability, T/C (second compound 3.16 µM, first compound 1 µM) 32.6% | viability, T/C (second compound 3.16 µM, first compound 3.16 µM) 19.3% | viability, T/C (second compound 10 µM, first compound 0.0316 µM) 86.9% | viability, T/C (second compound 10 µM, first compound 0.1 µM) 85.8% | viability, T/C (second compound 10 µM, first compound 0.316 µM) 59.9% | viability, T/C (second compound 10 µM, first compound 1 µM) 70% | viability, T/C (second compound 10 µM, first compound 3.16 µM) 13.5%
< 31.6 nM: IC50 (second compound 3.16 µM)
1110 nM: IC50 (second compound 0.316 µM)

Cn1ncnc1[C@H]1c2n[nH]c(=O)c3cc(F)cc(c23)N[C@@H]1c1ccc(F)cc1 + CCN1C(C(=O)NC23CCC(C(=O)O)(CC2)CC3)C(c2cccc(Cl)c2F)C2(C(=O)Nc3cc(Cl)ccc32)C12CCCCC2
> 100 nM: IC50 (second compound 0.03 µM) | IC50 (second compound 0.949 µM)
inactive: viability, T/C (second compound 0.03 µM, first compound 0.000316 µM) 114% | viability, T/C (second compound 0.03 µM, first compound 0.001 µM) 107% | viability, T/C (second compound 0.03 µM, first compound 0.00316 µM) 104% | viability, T/C (second compound 0.03 µM, first compound 0.01 µM) 62% | viability, T/C (second compound 0.03 µM, first compound 0.0316 µM) 62% | viability, T/C (second compound 0.03 µM, first compound 0.1 µM) 45.1% | viability, T/C (second compound 0.0949 µM, first compound 0.000316 µM) 94% | viability, T/C (second compound 0.0949 µM, first compound 0.001 µM) 102% | viability, T/C (second compound 0.0949 µM, first compound 0.00316 µM) 89.4% | viability, T/C (second compound 0.0949 µM, first compound 0.01 µM) 73.6% | viability, T/C (second compound 0.0949 µM, first compound 0.0316 µM) 64.6% | viability, T/C (second compound 0.0949 µM, first compound 0.1 µM) 45.4% | viability, T/C (second compound 0.3 µM, first compound 0.000316 µM) 96.5% | viability, T/C (second compound 0.3 µM, first compound 0.001 µM) 104% | viability, T/C (second compound 0.3 µM, first compound 0.00316 µM) 90.6% | viability, T/C (second compound 0.3 µM, first compound 0.01 µM) 77.3% | viability, T/C (second compound 0.3 µM, first compound 0.0316 µM) 66% | viability, T/C (second compound 0.3 µM, first compound 0.1 µM) 41.4% | viability, T/C (second compound 0.949 µM, first compound 0.000316 µM) 109% | viability, T/C (second compound 0.949 µM, first compound 0.001 µM) 101% | viability, T/C (second compound 0.949 µM, first compound 0.00316 µM) 92.3% | viability, T/C (second compound 0.949 µM, first compound 0.01 µM) 65.1% | viability, T/C (second compound 0.949 µM, first compound 0.0316 µM) 59.9% | viability, T/C (second compound 0.949 µM, first compound 0.1 µM) 48% | viability, T/C (second compound 3 µM, first compound 0.000316 µM) 91.5% | viability, T/C (second compound 3 µM, first compound 0.001 µM) 91.8% | viability, T/C (second compound 3 µM, first compound 0.00316 µM) 82.8% | viability, T/C (second compound 3 µM, first compound 0.01 µM) 72.5% | viability, T/C (second compound 3 µM, first compound 0.0316 µM) 61.5% | viability, T/C (second compound 3 µM, first compound 0.1 µM) 43.9%
65.3 nM: IC50 (second compound 0.3 µM)
66.2 nM: IC50 (second compound 3 µM)
75.8 nM: IC50 (second compound 0.0949 µM)
